Earlier results in patent publication US10927398B2, “Compositions for CYP450 phenotyping using saliva samples” (Concordia University, Inc., priority 2015, dated 2021).
Like-named read-outs stand apart in the source and are kept apart here.

Tests used:
plasma protein = conditions: Table of Exemplary Drugs, cited from earlier work
[1] = cited from earlier work
[2] = Table of Exemplary Drugs, CYP3A4
[3] = Table of Exemplary Drugs, CYP2C19
[4] = Table of Exemplary Drugs, CYP2C9
[5] = Table of Exemplary Drugs, CYP1A2
[6] = Table of Exemplary Drugs, CYP2D6

SMILES: CCN(CC)CCNC(=O)c1c(C)[nH]c(/C=C2\C(=O)Nc3ccc(F)cc32)c1C [Sunitinib (Sutent), Sunitinib]
- PLASMA PROTEIN BINDING (plasma protein; CYP3A4): 95%
- HALF-LIFE [1, 2]: 40 to 60 h

SMILES: CC[C@H](C)C(=O)O[C@H]1C[C@@H](C)C=C2C=C[C@H](C)[C@H](CC[C@@H]3C[C@@H](O)CC(=O)O3)[C@H]21 [Lovastatin (Mevacor), Lovastatin]
- PLASMA PROTEIN BINDING (plasma protein; CYP3A4): >95%
- HALF-LIFE [1, 2]: 2 to 5 h

SMILES: Cc1c(O)cccc1C(=O)N[C@@H](CSc1ccccc1)[C@H](O)CN1C[C@H]2CCCC[C@H]2C[C@H]1C(=O)NC(C)(C)C [Nelfinavir]
- PLASMA PROTEIN BINDING (plasma protein; CYP2C19): 98%
- HALF-LIFE [1, 3]: 3.5 to 5 h

SMILES: CN1C2CCCC1CC(NC(=O)c1nn(C)c3ccccc13)C2 (centres unmarked) [Granisetron (Kytril), Granisetron]
- PLASMA PROTEIN BINDING (plasma protein; CYP3A4): 65%
- HALF-LIFE [1, 2]: 3 to 24 h

SMILES: CCCc1nn(C)c2c(=O)[nH]c(-c3cc(S(=O)(=O)N4CCN(C)CC4)ccc3OCC)nc12 [Sildenafil]
- PLASMA PROTEIN BINDING (plasma protein; CYP2C9): 96%
- PLASMA PROTEIN BINDING (plasma protein; CYP3A4): 96%
- HALF-LIFE [1, 4]: 4 h

SMILES: NC(=O)C[S+]([O-])C(c1ccccc1)c1ccccc1 (centres unmarked) [Modafinil (Provigil), Modafinil]
- PLASMA PROTEIN BINDING (plasma protein; CYP3A4): 60%
- HALF-LIFE [1, 2]: 7.5 to 15 h

SMILES: CC1(C)NC(=O)N(c2ccc([N+](=O)[O-])c(C(F)(F)F)c2)C1=O [Nilutamide]
- PLASMA PROTEIN BINDING (plasma protein; CYP2C19): 80-84% ^
- HALF-LIFE [1, 3]: 38 to 59.1 h

SMILES: CS(=O)(=O)CCNCc1ccc(-c2ccc3ncnc(Nc4ccc(OCc5cccc(F)c5)c(Cl)c4)c3c2)o1 [Lapatinib (Tykerb), Lapatinib]
- PLASMA PROTEIN BINDING (plasma protein; CYP3A4): >99%
- HALF-LIFE [1, 2]: 24 h

SMILES: CC(=O)O[C@@]12CO[C@@H]1C[C@H](O)[C@@]1(C)C(=O)[C@H](O)C3=C(C)[C@@H](OC(=O)[C@H](O)[C@@H](NC(=O)OC(C)(C)C)c4ccccc4)C[C@@](O)([C@@H](OC(=O)c4ccccc4)[C@H]21)C3(C)C [Docetaxel (Taxotere), Docetaxel]
- PLASMA PROTEIN BINDING (plasma protein; CYP3A4): 94-97% ^
- HALF-LIFE [1, 2]: 11.1 h

SMILES: CC/C(=C(\c1ccccc1)c1ccc(OCCN(C)C)cc1)c1ccccc1 [Tamoxifen]
- PLASMA PROTEIN BINDING (plasma protein; CYP1A2): 99%
- PLASMA PROTEIN BINDING (plasma protein; CYP2C9): 99%
- PLASMA PROTEIN BINDING (plasma protein; CYP2D6): 99%
- PLASMA PROTEIN BINDING (plasma protein; CYP3A4): 99%
- HALF-LIFE [1, 5]: ~120 to 170 h
- HALF-LIFE [1, 4]: 120 to 170 h
- HALF-LIFE [1, 6]: 120 to 170 h
- HALF-LIFE [1, 2]: 120 to 170 h

SMILES: Cc1c(OCC(F)(F)F)ccnc1C[S+]([O-])c1nc2ccccc2[nH]1 (centres unmarked) [Llansoprazole]
- PLASMA PROTEIN BINDING (plasma protein; CYP2C19): 97-99% ^
- HALF-LIFE [1, 3]: 0.9 to 1.5 h

SMILES: C/C(=C\c1csc(C)n1)[C@@H]1C[C@@H]2O[C@]2(C)CCC[C@H](C)[C@H](O)[C@@H](C)C(=O)C(C)(C)[C@@H](O)CC(=O)N1 [Ixabepilone (Ixempra), Ixabepilone]
- PLASMA PROTEIN BINDING (plasma protein; CYP3A4): 67-77% ^
- HALF-LIFE [1, 2]: 52 h

SMILES: CCN(CC)CCNC(=O)c1cc(Cl)c(N)cc1OC [Metoclopramide]
- PLASMA PROTEIN BINDING (plasma protein; CYP2D6): 30%
- HALF-LIFE [1, 6]: 5 to 6 h

SMILES: CC[C@H](O)C(C[C@H](C)N(C)C)(c1ccccc1)c1ccccc1 [Levomethadyl (Orlaam), Levomethadyl]
- PLASMA PROTEIN BINDING (plasma protein; CYP3A4): 80%
- HALF-LIFE ([1]; in vivo): 35 to 60 h

SMILES: C[C@]12C=CC(=O)C=C1CC[C@@H]1[C@@H]2[C@@H](O)C[C@@]2(C)[C@H]1CC[C@]2(O)C(=O)CO [Prednisolone]
- PLASMA PROTEIN BINDING (plasma protein; CYP3A4): 70-90% ^
- HALF-LIFE [1, 2]: 2 to 4 h

SMILES: CCN(CC)CC#CCOC(=O)C(O)(c1ccccc1)C1CCCCC1 (centres unmarked) [Oxybutynin (Ditropan), Oxybutynin]
- PLASMA PROTEIN BINDING (plasma protein; CYP3A4): 91-93% ^
- HALF-LIFE [1, 2]: 7 to 30 h

SMILES: CN1C(C(=O)Nc2ccccn2)=C(O)c2ccccc2S1(=O)=O [Piroxicam]
- PLASMA PROTEIN BINDING (plasma protein; CYP2C9): 99%
- HALF-LIFE [1, 4]: 50 h

SMILES: CC(C)CN(C[C@@H](OP(=O)(O)O)[C@H](Cc1ccccc1)NC(=O)O[C@H]1CCOC1)S(=O)(=O)c1ccc(N)cc1 [Fosamprenavir (Lexiva), Fosamprenavir]
- PLASMA PROTEIN BINDING (plasma protein; CYP3A4): 90%
- HALF-LIFE [1, 2]: 7.7 h

SMILES: CCN(CC)CCCC(C)Nc1c2ccc(Cl)cc2nc2ccc(OC)cc12 (centres unmarked) [Quinacrine]
- PLASMA PROTEIN BINDING (plasma protein; CYP3A4): 80-90% ^
- HALF-LIFE [1, 2]: 120 h

SMILES: O=C1CCc2ccc(OCCCCN3CCN(c4cccc(Cl)c4Cl)CC3)cc2N1 [Aripiprazole]
- PLASMA PROTEIN BINDING (plasma protein; CYP2D6): >99%
- HALF-LIFE [1, 6]: 75 h

SMILES: C=C(c1ccc(C(=O)O)cc1)c1cc2c(cc1C)C(C)(C)CCC2(C)C [Bexarotene (Targretin), Bexarotene]
- PLASMA PROTEIN BINDING (plasma protein; CYP3A4): 99%
- HALF-LIFE [1, 2]: 7 h

SMILES: CC(c1cc2ccccc2s1)N(O)C(N)=O (centres unmarked) [Zileuton]
- PLASMA PROTEIN BINDING (plasma protein; CYP1A2): 93%
- HALF-LIFE [1, 5]: 2.5 to 3.2 h

SMILES: NC(=O)N1c2ccccc2C=Cc2ccccc21 [Carbamazepine (eg. Tegretol), Carbamazepine]
- PLASMA PROTEIN BINDING (plasma protein; CYP3A4): 76%
- HALF-LIFE [1, 2]: 12 to 17 h

SMILES: CN1CC(=O)N2[C@H](c3ccc4c(c3)OCO4)c3[nH]c4ccccc4c3C[C@@H]2C1=O [Tadalafil (Cialis), Tadalafil]
- PLASMA PROTEIN BINDING (plasma protein; CYP3A4): 94%
- HALF-LIFE [1, 2]: 15 to 35 h

SMILES: Cc1ccc(-c2cc(C(F)(F)F)nn2-c2ccc(S(N)(=O)=O)cc2)cc1 [Celecoxib]
- PLASMA PROTEIN BINDING (plasma protein; CYP2C9): 97%
- HALF-LIFE [1, 4]: 11 h

SMILES: C[C@H]1C[C@@H]2[C@H]([C@@H](O)C[C@@]3(C)[C@H]2CC[C@]3(O)C(=O)CO)[C@@]2(C)C=CC(=O)C=C12 [Methylprednisolone]
- PLASMA PROTEIN BINDING (plasma protein; CYP3A4): 78%
- HALF-LIFE [1, 2]: 2 to 3 h

SMILES: CCCCN(CCCC)CCC(O)c1cc2c(Cl)cc(Cl)cc2c2cc(C(F)(F)F)ccc12 (centres unmarked) [Halofantrine (Halfan), Halofantrine]
- PLASMA PROTEIN BINDING (plasma protein; CYP3A4): 60-70% ^
- HALF-LIFE [1, 2]: 140 to 240 h

SMILES: O=C1CN=C(c2ccccc2Cl)c2cc([N+](=O)[O-])ccc2N1 [Clonazepam (Klonopin), Clonazepam]
- PLASMA PROTEIN BINDING (plasma protein; CYP3A4): 85%
- HALF-LIFE ([1]; in vivo): 30 to 40 h

SMILES: Cc1nc(Nc2ncc(C(=O)Nc3c(C)cccc3Cl)s2)cc(N2CCN(CCO)CC2)n1 [Dasatinib (Sprycel), Dasatinib]
- PLASMA PROTEIN BINDING (plasma protein; CYP3A4): 96%
- HALF-LIFE [1, 2]: 3 to 5 h

SMILES: CC(NC(C)(C)C)C(=O)c1cccc(Cl)c1 (centres unmarked) [Bupropion]
- PLASMA PROTEIN BINDING (plasma protein; CYP2C19): 84%
- PLASMA PROTEIN BINDING (plasma protein; CYP3A4): 84%
- HALF-LIFE [1, 3]: 19 to 21.3 h
- HALF-LIFE [1, 2]: 19 to 21.3 h

SMILES: Cc1cccc(C)c1OCC(=O)N[C@@H](Cc1ccccc1)[C@@H](O)C[C@H](Cc1ccccc1)NC(=O)[C@H](C(C)C)N1CCCNC1=O [Lopinavir (Kaletra), Lopinavir]
- PLASMA PROTEIN BINDING (plasma protein; CYP3A4): 98-99% ^
- HALF-LIFE [1, 2]: 5 to 6 h
